Entries after “also recorded” stand apart in the source; their conditions may differ. Read-outs that look alike come from different tables or passages of the source. Blank lines part the entries; values can stand above or below the compound they belong to.
Tests used:
[1] = tested on: β 1,4-galactosyltransferase; conditions: previous observation, Wong 1992; Srivastava 1993; cited from earlier work
[2] = tested on: β 1,4-galactosyltransferase; test: Inhibition study of β-1,4-galactosyltransferase (UDP-[3H]Gal transfer to N-acetylglucosamine); assay type: biochemical, bovine milk; conditions: for mode of inhibition of β-1,4-galactosyltransferase: HEPES 100 mM, pH 7.4
Method: All assays contained 10 mM of MnCl2, 2 mM of UDP-[^3 H]Gal, 5 μL of 0.125 mg/mL galactosyltransferase, 0.5-4 mM of N-acetylglucosamine, 0-0.05 mM of 1, and 100 mM of HEPES buffer (pH 7.4) in a total assay volume of 0.05 mL. Assay was performed at 25° C. Reactions were halted with the addition of 0.3 mL of distilled, de-ionized water after 10 min. The reaction mixtures were passed through a pipette column (2 cm) of Sepadex QAE A-25 with 1 mL of distilled, de-ionized water. The obtained fractions were collected in 10 mL of ScintiVerse I scintillation cocktail. A control reaction without enzyme was used to establish the background, non-enzymatic cleavage rate. A typical control reaction of 41754 cpm UDP-[^3 H]Gal would result in 890 cpm of non-enzymatic column flow through.

[3] = target: T1, α-1,3-fucosyltransferase V (Homo sapiens, UniProt Q11128); test: Inhibition of α-1,3-fucosyltransferase V (FucT V), GDP-Fuc varied at fixed inhibitor concentrations; assay type: biochemical; conditions: for mode of inhibition of FucT V: GDP-Fuc varied, constant LacNAc acceptor, listed as GDP-2F-Fuc
T1 construct: made in house
T1 sequence (Q11128 1-374): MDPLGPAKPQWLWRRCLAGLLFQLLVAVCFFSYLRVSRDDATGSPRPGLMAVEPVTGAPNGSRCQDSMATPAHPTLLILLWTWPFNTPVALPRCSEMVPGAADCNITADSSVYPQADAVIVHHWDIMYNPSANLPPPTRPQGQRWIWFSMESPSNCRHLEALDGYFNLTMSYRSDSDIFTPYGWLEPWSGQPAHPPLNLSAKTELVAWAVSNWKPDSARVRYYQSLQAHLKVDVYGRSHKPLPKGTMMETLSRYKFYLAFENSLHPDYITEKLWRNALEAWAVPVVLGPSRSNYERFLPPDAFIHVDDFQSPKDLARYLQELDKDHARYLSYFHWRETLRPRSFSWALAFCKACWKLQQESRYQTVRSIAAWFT
Method: GDP-Fuc concentration was varied ([…]) and the acceptor sugar, LacNAc-b-O--(CH2)5 CO2 CH3, was kept at twice its km level, 0.6 mM. (Inset) A replot of the slopes as a function of GDP-2F-Fuc concentration is presented as a graphical Ki determination (Ki =x axis intercept).
(§1) The interaction of GDP-2F-Fuc with FucT V was evaluated. The mode of inhibition of FucT V by GDP-2F-Fuc was evaluated by varying the GDP-Fuc concentrations at fixed GDP-2F-Fuc concentrations at a constant LacNAc-b-O--(CH2)5 CO2 CH3 concentration. […] Pre incubation of 0.010 mM GDP-2F-Fuc with the FucT V in the presence of LacNAc-b-O--(CH2)5 CO2 CH3 and MnCl2 was performed for 0-80 minutes. The reactions were initiated with GDP-Fuc and allowed to react for 30 minutes. The percent inhibition remained constant at 58% which is expected for reversible inhibition. If GDP-2F-Fuc was either an inactivator of a slow substrate, then the inhibition would either increase or decrease as a function of time.
Anhydrous pyridine was purchased from Aldrich and used without further purification. N-Acetyllactosamine, Dowex 1-X8, MES, pyruvate kinase, lactate dehydrogenase, PEP, GDP, NADH, guanosine 5'-monophospho-morpholidate 4-morpholine-N,N'-dicyclohexylcarboxamidine salt, GDP-Fuc, and cacodylic acid were purchased from Sigma. Guanosine 5'-diphospho-[U-^14 C]-b-L-fucose was purchased from Amersham Life Science. ScintiVerseI scintillation cocktail and MnCl2.4 H2 O were purchased from Fisher Scientific Company. Protein concentrations were determined with the Coomassie protein staining reagent with albumin standards as purchased from Pierce. The scintillation counter used was the Beckman LS 3801. Fluorescence was measured on a Hitachi F2000 Fluorescence Spectrophotometer. Human a-1,3-fucosyltransferase and LacNAc-b-O--(CH2)5 CO2 CH3 were prepared according to published procedures (Murray et al.(1996) Biochemistry 35, 11183-11195.).
GDP-Fuc concentration was varied ([…]) at fixed concentrations of GDP-2F-Fuc ([…]), and the acceptor sugar, LacNAc-b-O-(CH2)5 CO2 CH3, was kept at twice its Km level, 0.6 mM. Each assay contained 0.3 munit of FucT V and 10 mM MnCl2 in a 100 mM MES buffer (pH 6.0). Reactions were 30 minutes at room temperature.

FucT V = target: T2, FucT V (Homo sapiens, UniProt Q11128); test: Pre-incubation of GDP-2F-Fuc with FucT V (slow substrate / inactivator test); assay type: biochemical
T2 sequence (Q11128 1-374): T1 sequence (Q11128 1-374)
Method: as §1
A 0.350 mL solution that contained 10 mM MnCl2 , 2.1 munits FucT V, 0.30 mM LacNAc-b-O--(CH2)5 CO2 CH3, 0.010 mM GDP-2F-Fuc, and 100 mM MES (pH 6.0). This solution was subject to incubation at room temperature for various time periods (0, 3, 10, 20, 30, 60, 80 min). After the incubation time, a 0.050 mL aliquot was removed and GDP-[U-^14 C]-fucose was added to a final concentration of 0.050 mM to initiate the fucosyltransfer reaction. After a 30 minute reaction time period, the solution was passed through a Dowex 1 column and the amount of product determined.

[4] = tested on: β 1,4-galactosyltransferase; conditions: literature: Morrison, Ebner J. Biol. Chem. 1971; read-out: Km of GlcNAc (lit); cited from earlier work

Compound: O=c1ccn([C@@H]2O[C@H](COP(=O)(O)OP(=O)(O)O[C@@H]3C[C@@H](O)[C@@H](O)[C@@H](CO)O3)[C@@H](O)[C@H]2O)c(=O)[nH]1 [2-deoxy derivative]
substrate quality for the transferase [1]: good substrate

mode of inhibition of β-1,4-galactosyltransferase [2]: competitive inhibitor
mode of inhibition of β-1,4-galactosyltransferase ([2]; listed as UDP-2F-Gal, 1): potent competitive inhibitor
mode of inhibition of β-1,4-galactosyltransferase ([2]; listed as UDP-2FGal): competitive inhibitor
mode of inhibition of β-1,4-galactosyltransferase ([2]; listed as UDP-2FGal 1): competitive inhibition
Ki ([2]; competitive inhibition, UDP-Gal, GlcNAc, Mn2+ 10 mM, HEPES 100 mM pH 7.4, 25° C.): 41 µM
Compound: O=c1ccn([C@@H]2O[C@H](COP(=O)(O)OP(=O)(O)O[C@H]3O[C@H](CO)[C@H](O)[C@H](O)[C@H]3F)[C@@H](O)[C@H]2O)c(=O)[nH]1 [Compound 1, Uridine 5'-diphospho-2-deoxy-2-fluoro-α-D-galactose]

mode of inhibition of FucT V [3]; 21: potent competitive inhibitor
Ki ([3]; α-1,3-fucosyltransferase V, summary and description): 4.2 µM
percent inhibition after pre-incubation (FucT V; 0.010 mM GDP-2F-Fuc, pre-incubation 0-80 minutes, 30 minutes reaction, remained constant): 58%
effect of pre-incubation on the potency of inhibition (FucT V; incubation with FucT V and acceptor prior to GDP-Fuc): no effect
Compound: C[C@@H]1O[C@H](OP(=O)(O)OP(=O)(O)OC[C@H]2O[C@@H](n3cnc4c(=O)[nH]c(N)nc43)[C@H](O)[C@@H]2O)[C@@H](F)[C@H](O)[C@@H]1O [Compound 21, Guanosine 5'-diphospho-2-deoxy-2-fluoro-β-L-fucose]
mode of inhibition of FucT V [3]: potent competitive inhibitor; also recorded: competitive inhibition pattern
relative potency as FucT V inhibitor ([3]; compared with inhibitors known to date): most potent inhibitor of this enzyme to date
slow substrate or inactivator behaviour (FucT V; pre-incubation with FucT V, acceptor and MnCl2 before GDP-Fuc, listed as GDP-2F-Fuc): not a slow substrate or an inactivator; also recorded: neither an inactivator nor a slow substrate

Vmax ([2]; acceptor GlcNAc, HEPES pH 7.4): 0.14 ± 0.01 µmol/min
Km ([2]; β 1,4-galactosyltransferase, HEPES pH 7.4, read-out: Km of GlcNAc): 5.3 ± 0.5 mM
Compound: CC(=O)N[C@H]1C(O)O[C@H](CO)[C@@H](O)[C@@H]1O (stereo partly shown) [GlcNAc, N-acetylglucosamine, reference compound]
Km [4]: 6 mM

Reference: patent publication US5770407A, “Process for preparing nucleotide inhibitors of glycosyltransferases” (The Scripps Research Institute, priority 1996, dated 1998)
